{"source": "patent US7132234B2", "about": "“Methods and compositions for the identification of anti-poxvirus agents” (priority 2003, dated 2006)", "test_system": "26S proteasome-mediated degradation of SP28", "assay_type": "cell-based", "note": "Where a SMILES comes first, the peptide text is derived from it. The star is where a group is joined. Cbz = O=C(OCc1ccccc1)*"}
{"smiles": "CC(C)C[C@@H](C=O)NC(=O)[C@H](CC(C)C)NC(=O)[C@H](CC(C)C)NC(=O)OCc1ccccc1", "note": "[MG132] (Cbz-Leu-Leu-Leu-aldehyde)", "values": [{"measurement": "Stability of SP28 C173A/H199A mutant in cells", "value": "also stabilized by MG132, although to a much lesser extent"}, {"measurement": "Stability of wild-type SP28 in cells", "value": "remarkably enhanced stability of wild-type SP28"}]}
